Results on 23 molecules are retold here after patent US20250197382A1, “KIF18A INHIBITOR” (WIGEN BIOMEDICINE TECHNOLOGY (SHANGHAI) CO., LTD., priority 2022, published 2025).

The assay has as its target Recombinant human KIF18A (1-467His-tagged) protein (Homo sapiens (Human), UniProt Q8NI77). Kind of assay: KIF18A enzyme assay (microtubule-stimulated ATPase activity, ADP-Glo). It counts as biochemical. The following applies: 30 nM KIF18A, ATP 75 μM, read-out: inhibitory activity against KIF18A IC50. The procedure:
Biological Example 1. Assay for In Vitro Inhibition of Enzymatic Activity of KIF18A by Compounds of the Present Invention
KIF18A enzyme assay: The enzymatic activity of KIF18A after treatment with the compounds was measured by an assay of microtubule-stimulated ATPase activity. ADP generated from the ATPase reaction was measured in this assay. The compounds were serially diluted 2-fold in DMSO over a range of 22 concentration points. Recombinant human KIF18A (1-467His-tagged) protein was expressed using a baculovirus system. Concentrations of KIF18A protein, microtubules, and ATP in the reaction were optimized for a standardized homogenous enzyme assay using an ADP-Glo kinase/ATPase assay kit. A reaction buffer [(15 mM Tris, pH 7.5), 10 mM MgCl2, 0.01% PluronicF-68, 1 μM paclitaxel, and 30 μg/mL pig microtubules] was prepared. The compounds and KIF18A protein (30 nM) were added to the prepared reaction buffer, and the reaction mixture was incubated at room temperature for 15 min, followed by addition of ATP (Km, 75 μM). The resulting reaction mixture was incubated at room temperature for another 15 min. 5 μL of ADP-Glo reagent and 2.5 μL of the reaction mixture were mixed and the resulting mixture was incubated at room temperature for 40 min. 10 μL of ADP-Glo detection reagent was added and the mixture was incubated at room temperature for 40 min. Luminescence was measured using a microplate reader and compared with that of the DMSO group, and then the inhibition percentages and IC50 values of the compounds were calculated.

Chain of Recombinant human KIF18A (1-467His-tagged) protein (Q8NI77 1-467): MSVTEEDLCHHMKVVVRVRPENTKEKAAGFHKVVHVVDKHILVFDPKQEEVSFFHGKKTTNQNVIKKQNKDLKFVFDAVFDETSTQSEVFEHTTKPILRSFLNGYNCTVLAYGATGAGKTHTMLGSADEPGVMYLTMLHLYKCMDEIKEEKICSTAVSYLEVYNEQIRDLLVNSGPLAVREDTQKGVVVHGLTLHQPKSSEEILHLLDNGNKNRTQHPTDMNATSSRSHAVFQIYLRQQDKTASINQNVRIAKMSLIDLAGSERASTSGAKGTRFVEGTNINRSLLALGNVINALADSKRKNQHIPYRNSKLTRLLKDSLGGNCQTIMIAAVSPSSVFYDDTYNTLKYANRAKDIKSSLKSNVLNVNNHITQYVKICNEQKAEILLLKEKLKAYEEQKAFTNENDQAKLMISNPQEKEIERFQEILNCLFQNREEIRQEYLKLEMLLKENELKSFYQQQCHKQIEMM
Chain of Recombinant human KIF18A (1-467His-tagged) protein (P02550 whole entry partner): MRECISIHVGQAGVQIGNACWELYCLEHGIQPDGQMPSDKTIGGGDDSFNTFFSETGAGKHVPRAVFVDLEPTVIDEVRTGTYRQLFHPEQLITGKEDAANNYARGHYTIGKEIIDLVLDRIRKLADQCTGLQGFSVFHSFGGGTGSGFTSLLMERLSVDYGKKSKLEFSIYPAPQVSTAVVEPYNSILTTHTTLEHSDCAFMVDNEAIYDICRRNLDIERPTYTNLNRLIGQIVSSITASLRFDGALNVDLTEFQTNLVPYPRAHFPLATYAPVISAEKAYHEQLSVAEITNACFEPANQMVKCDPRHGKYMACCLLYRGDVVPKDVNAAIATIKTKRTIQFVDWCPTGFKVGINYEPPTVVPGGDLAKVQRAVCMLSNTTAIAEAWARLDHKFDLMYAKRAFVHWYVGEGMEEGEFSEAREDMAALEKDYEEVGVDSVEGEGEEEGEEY
Chain of Recombinant human KIF18A (1-467His-tagged) protein (P02554 whole entry partner): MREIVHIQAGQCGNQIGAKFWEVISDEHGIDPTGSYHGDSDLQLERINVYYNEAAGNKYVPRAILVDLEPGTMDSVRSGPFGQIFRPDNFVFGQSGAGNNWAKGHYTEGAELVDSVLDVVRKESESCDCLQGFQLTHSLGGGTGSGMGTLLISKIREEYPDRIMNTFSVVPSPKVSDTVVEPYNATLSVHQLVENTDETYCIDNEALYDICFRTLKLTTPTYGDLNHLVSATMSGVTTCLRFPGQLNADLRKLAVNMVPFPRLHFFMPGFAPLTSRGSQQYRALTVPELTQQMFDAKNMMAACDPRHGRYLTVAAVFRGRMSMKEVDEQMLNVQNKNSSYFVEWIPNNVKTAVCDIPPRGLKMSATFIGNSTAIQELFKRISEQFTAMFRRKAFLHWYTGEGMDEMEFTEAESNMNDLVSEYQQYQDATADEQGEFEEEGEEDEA

In the case of `CN1CCc2cc(C(=O)Nc3ccc(NS(=O)(=O)CCO)cc3N3CCC4(CC3)CC4)nc(N3CCC(F)CC3)c21` [Compound 361], the half-inhibitory concentration (IC50) was not above 0.1 µM.
The result for `C[C@@H]1CN(c2nc(C(=O)Nc3ccc(NS(=O)(=O)[C@H](C)CO)cc3N3CCC4(CC3)CC4)cc3c2N(C)CC3)CCO1` [Compound 368] reads not above 0.1 µM; that for `O=C(Nc1cc2ccoc2c(N2CCC(F)CC2)n1)c1ccc(S(=O)(=O)NCCO)cc1N1CCC2(CC1)CC2` [Compound 217], not above 0.1 µM.
The result for `O=C(Nc1cc(N2CCC3(CC3)C2)c2occc2c1)c1ccc(NS(=O)(=O)CCO)cc1N1CCC2(CC1)CC2` [Compound 134] reads not above 0.1 µM; that for `O=C(Nc1cc(N2CCOCC2)c2occc2c1)c1ccc(NS(=O)(=O)CCO)cc1N1CCC2(CC1)CC2` [Compound 140], not above 0.1 µM; that for `C[C@@H]1CN(c2cc(C(=O)Nc3ccc(S(=O)(=O)N[C@@H](C)CO)cc3N3CCC4(CC3)CC4)cc3c2OCC3)CCO1` [Compound 63], not above 0.1 µM.
Regarding `O=C(Nc1cc2c(c(N3CCC(F)CC3)n1)OCC2)c1ccc(NS(=O)(=O)CCO)cc1N1CCC2(CC1)CC2` [Compound 73], the IC50 was not above 0.1 µM.
Then `C[C@H]1CN(c2cc(NC(=O)c3ccc(S(=O)(=O)NCCO)cc3N3CCC4(CC3)CC4)cc3ccn(C)c23)CCO1` [Compound 403], with not above 0.1 µM; and `C[C@H](CO)NS(=O)(=O)c1ccc(C(=O)Nc2cc3c(c(N4CCO[C@H](C)C4)c2)N(C)CC3)c(N2CCC3(CC2)CC3)c1` [Compound 288], with not above 0.1 µM; and `CN1CCc2cc(NC(=O)c3ccc(NS(=O)(=O)CCO)cc3N3CCC4(CC3)CC4)nc(OC3CCC3)c21` [Compound 327], with not above 0.1 µM.
Then `O=C(Nc1ccc(S(=O)(=O)NCCO)cc1N1CCC2(CC1)CC2)c1cc(N2CC(F)(F)C2)c2occc2c1` [Compound 180], with not above 0.1 µM; and `C[C@@H]1CN(c2nc(C(=O)Nc3ccc(S(=O)(=O)N[C@@H](C)CO)cc3N3CCC4(CC3)CC4)cc3c2OCC3)CCO1` [Compound 127], with not above 0.1 µM.
On to `O=C(Nc1cc2c(c(N3CCC4(CC4)C3)n1)OCC2)c1ccc(S(=O)(=O)NCCO)cc1N1CCC2(CC1)CC2` [Compound 86], for which the IC50 is not above 0.1 µM.
Regarding `O=C(Nc1cc2c(c(N3CCC(F)(F)CC3)n1)OCCO2)c1ccc(NS(=O)(=O)CCO)cc1N1CCC2(CC1)CC2` [Compound 544], the IC50 is not above 0.1 µM.
Then `Cn1ccc2cc(C(=O)Nc3ccc(S(=O)(=O)NCCO)cc3N3CCC4(CC3)CC4)nc(OCCC(F)(F)F)c21` [Compound 501], with not above 0.1 µM; and `C[C@H](CO)NS(=O)(=O)c1ccc(NC(=O)c2cc3c(c(N4CCO[C@H](C)C4)c2)OCC3)c(N2CCC3(CC2)CC3)c1` [Compound 64], with not above 0.1 µM.
Regarding `C[C@@H]1CN(c2nc(C(=O)Nc3ccc(S(=O)(=O)NCCO)cc3N3CCC4(CC3)CC4)cc3ccoc23)CCO1` [Compound 242], the IC50 is not above 0.1 µM.
In the case of `CN1CCc2cc(C(=O)Nc3ccc(S(=O)(=O)NCCO)cc3N3CCC4(CC3)CC4)cc(N3CC4CC4C3)c21` (centres unmarked) [Compound 314], the IC50 is not above 0.1 µM.
Then `CN1CCc2cc(C(=O)Nc3ccc(NS(=O)(=O)CCO)cc3N3CCC4(CC3)CC4)cc(N3CCC4(CC4)C3)c21` [Compound 294], with not above 0.1 µM; and `C[C@H](CO)NS(=O)(=O)c1ccc(NC(=O)c2cc3ccn(C)c3c(N3CCC(F)(F)CC3)n2)c(N2CCC3(CC2)CC3)c1` [Compound 510], with not above 0.1 µM.
Then `Cn1ccc2cc(C(=O)Nc3ccc(S(=O)(=O)NCCO)cc3N3CCC4(CC3)CC4)cc(N3CCC(C)(F)C3)c21` (centres unmarked) [Compound 440], with not above 0.1 µM; and `Cn1cnc2cc(NC(=O)c3ccc(NS(=O)(=O)CCO)cc3N3CCC4(CC3)CC4)cc(N3CCC(F)(F)CC3)c21` [Compound 528], with not above 0.1 µM.
The result for `C[C@@H]1CN(c2cc(NC(=O)c3ccc(NS(=O)(=O)[C@H](C)CO)cc3N3CCC4(CC3)CC4)cc3c2N(C)CC3)CCO1` [Compound 272] reads not above 0.1 µM.

By IC50 is commonly meant the midpoint of a concentration-inhibition curve.
